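48-hour exposure; five concentrations; linearly interpolated endpoints. GI50 = concentration required for 50% inhibition of growth. Definition used: TGI = concentration required for complete inhibition of growth.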 A value given as a limit tells only on which side of the number the result lay.

Test systems include 786-0 renal; EKVX NSCLC; CAKI-1 renal; SNB-75 CNS; IGROV1 ovarian; SF-268 CNS; RXF 393 renal; SF-539 CNS; BT-549 breast; MDA-MB-231 breast.
Common to all, as to assay: DTP human tumour cell line panel, 48 h

As a reminder, the TGI is the concentration giving total growth inhibition. Lower therefore signals greater sensitivity of the cells. Take `COC(=O)C1CCC(Nc2cccc(C(F)(F)F)c2)=N1` (configuration not stated): the concentration for total growth inhibition (TGI) in the test on 786-0 renal, with EKVX NSCLC, with CAKI-1 renal, with SNB-75 CNS, in the test with IGROV1 ovarian and in the test with SF-268 CNS was over 100 µM each time.

For `N#CCC(=O)N/N=C1\C(=O)N(c2ccc(Cl)cc2)C(=O)C(=O)C1c1nc2ccccc2o1` (configuration not stated), the TGI with 786-0 renal, with RXF 393 renal, in the test with EKVX NSCLC, with CAKI-1 renal, in the test on SF-539 CNS and with SNB-75 CNS was over 100 µM in each case. Also, the total growth inhibition concentration (TGI) in the test with IGROV1 ovarian and in the test on SF-268 CNS was over 100 µM throughout.

On to `C=C(CS(=O)(=O)c1ccccc1)[P+](c1ccccc1)(c1ccccc1)c1ccccc1`, for which the TGI in the test on 786-0 renal was 47.3 µM; with RXF 393 renal it was 38.4 µM; in the test on EKVX NSCLC, over 100 µM; in the test on CAKI-1 renal, 65.9 µM; in the test with SF-539 CNS it was 78.2 µM; with SNB-75 CNS it was 67.3 µM. Moreover, the TGI in the test on IGROV1 ovarian worked out at 68.4 µM; in the test with SF-268 CNS it was 29.6 µM.

`CC(=O)OC1C(CCl)OC(N=[N+]=[N-])C(OC(C)=O)C1OC(C)=O` (configuration not stated): the total growth inhibition concentration (TGI) with 786-0 renal, in the test on RXF 393 renal, with EKVX NSCLC, in the test on CAKI-1 renal, in the test on SF-539 CNS and in the test with SNB-75 CNS was over 100 µM each time. The total growth inhibition concentration (TGI) in the test with IGROV1 ovarian and in the test on SF-268 CNS was over 100 µM throughout.

As usually defined, the GI50 is the concentration that inhibits growth by half. For `COc1ccc(C2=C(c3cc(OC)c(OC)c(OC)c3)C(=O)CC2)cc1`, the GI50 in the test on BT-549 breast was 0.919 µM; with MDA-MB-231 breast, 0.62 µM; in the test with 786-0 renal, 0.425 µM; in the test on EKVX NSCLC, 0.699 µM; with CAKI-1 renal, 0.76 µM; in the test with SF-539 CNS, 0.189 µM. The GI50 is 0.224 µM in the test with SNB-75 CNS, 0.58 µM with IGROV1 ovarian and 0.668 µM with SF-268 CNS. In addition, the TGI in the test with BT-549 breast was over 22.7 µM; with MDA-MB-231 breast, over 100 µM; in the test with 786-0 renal, over 100 µM; in the test on EKVX NSCLC, over 100 µM; with CAKI-1 renal it was over 100 µM; in the test on SF-539 CNS, over 48.3 µM. The TGI was over 100 µM in the test on SNB-75 CNS, over 100 µM in the test on IGROV1 ovarian and over 33.8 µM in the test with SF-268 CNS.

Regarding `C/C(=N/NC(=O)C(N)=O)C(CC(C(=O)Nc1ccccc1C)/C(C)=N\NC(=O)C(N)=O)C(=O)Nc1ccccc1C` (configuration not stated), the concentration for total growth inhibition (TGI) in the test with 786-0 renal, in the test with RXF 393 renal, with EKVX NSCLC, in the test on CAKI-1 renal, in the test with SF-539 CNS and in the test with SNB-75 CNS was over 100 µM in each case. In addition, the concentration for total growth inhibition (TGI) with IGROV1 ovarian and in the test on SF-268 CNS was over 100 µM each time.

Turning to `COc1cc2cc[n+]3c4cc(OC)c(OC)cc4c(C)cc3c2cc1OC`, the TGI in the test on 786-0 renal, in the test with EKVX NSCLC, in the test with CAKI-1 renal, in the test with SF-539 CNS, with SNB-75 CNS and in the test with IGROV1 ovarian was over 100 µM in each case.

On to `COc1cccc(C2C3=C(COC3=O)N(CCO)c3cc4c(cc32)OCCO4)c1` (configuration not stated), for which the GI50 with BT-549 breast is 0.255 µM; in the test with MDA-MB-231 breast, 0.257 µM; in the test on 786-0 renal, 0.198 µM; in the test with EKVX NSCLC it was 0.265 µM; with CAKI-1 renal, 0.145 µM; with SF-539 CNS, 0.124 µM. Further, the GI50 in the test on SNB-75 CNS is 0.0722 µM; in the test on IGROV1 ovarian, 0.0959 µM; in the test with SF-268 CNS, 0.355 µM. Moreover, the TGI was over 10.9 µM with BT-549 breast; 34.5 µM with MDA-MB-231 breast; over 50 µM with 786-0 renal; over 50 µM in the test on EKVX NSCLC; over 34.8 µM in the test on CAKI-1 renal; 0.424 µM with SNB-75 CNS. The total growth inhibition concentration (TGI) in the test with IGROV1 ovarian is 0.906 µM; in the test with SF-268 CNS, over 50 µM.

For `Clc1ccc(OC2CCO2)cc1Cl` (configuration not stated), the TGI in the test on 786-0 renal, with EKVX NSCLC, in the test with CAKI-1 renal, in the test with SF-539 CNS, in the test with SNB-75 CNS and in the test on IGROV1 ovarian was over 100 µM throughout. This compound also gave a TGI in the test on SF-268 CNS of over 100 µM.

As for `O=C1C(Cl)=C(Nc2cccc(O)c2)C(=O)N1c1ccc(Cl)c(Cl)c1`, the GI50 with 786-0 renal was 17.7 µM; in the test with RXF 393 renal, 14.5 µM; with CAKI-1 renal, 22.8 µM; with IGROV1 ovarian, 28.4 µM; with SF-268 CNS, 23.8 µM. Further, the TGI was 35.3 µM with 786-0 renal; 42.2 µM with RXF 393 renal; 59.1 µM in the test with CAKI-1 renal; over 100 µM in the test with IGROV1 ovarian; 62.3 µM in the test with SF-268 CNS.

Consider `CCN(CC)CCNC(=O)c1cccc2cc3ccccc3nc12`, for which the TGI is 32 µM in the test with 786-0 renal; 10.7 µM in the test on RXF 393 renal; 41.6 µM with EKVX NSCLC; over 100 µM in the test on CAKI-1 renal; 16.9 µM in the test on SF-539 CNS; 21.6 µM in the test on SNB-75 CNS. The concentration for total growth inhibition (TGI) in the test with IGROV1 ovarian was determined as 60.7 µM; with SF-268 CNS it was 28.2 µM.

Turning to `O=c1c2cc(Br)cc(Br)c2[nH]c(=S)n1-c1ccccc1`, the TGI in the test with 786-0 renal, in the test with EKVX NSCLC, with CAKI-1 renal, in the test with SF-539 CNS, in the test with SNB-75 CNS and in the test with IGROV1 ovarian was over 100 µM throughout. In the test with SF-268 CNS, this compound came in with a concentration for total growth inhibition (TGI) of over 100 µM.

Turning to `CN(c1ccccc1)C1C(=O)N(c2ccccc2)C1/C=C/c1ccccc1` (configuration not stated), the total growth inhibition concentration (TGI) in the test on 786-0 renal, with RXF 393 renal, in the test on EKVX NSCLC, in the test on CAKI-1 renal, in the test with SF-539 CNS and in the test with SNB-75 CNS was over 100 µM throughout. Moreover, the TGI in the test on IGROV1 ovarian and with SF-268 CNS was over 100 µM throughout.

For the compound `COC(=O)Nc1nc2cc3c(cc2s1)OCCO3`, the GI50 in the test with BT-549 breast, with MDA-MB-231 breast, in the test with 786-0 renal, in the test on RXF 393 renal, in the test with CAKI-1 renal and with SF-539 CNS was over 50 µM in each case. Moreover, the GI50 in the test with SNB-75 CNS, with IGROV1 ovarian and in the test with SF-268 CNS was over 50 µM throughout. For the same compound, the TGI in the test on BT-549 breast, with MDA-MB-231 breast, with 786-0 renal, in the test on RXF 393 renal, with CAKI-1 renal and in the test with SF-539 CNS was over 50 µM throughout. Further, the TGI in the test on SNB-75 CNS, in the test with IGROV1 ovarian and in the test with SF-268 CNS was over 50 µM throughout.

The values above are taken from PubChem BioAssay (NCI).
